These results are taken from patent publication EP3822283A1, “SEMAPHORIN 3A NEURODEGENERATION MODULATORS, COMPOSITIONS AND USES THEREOF” (Consejo Superior de Investigaciones Científicas (CSIC), priority 2019, dated 2021).

This experiment addresses T1, Sema3A (Rattus norvegicus, UniProt Q63548).
T1 sequence (Q63548 21-772): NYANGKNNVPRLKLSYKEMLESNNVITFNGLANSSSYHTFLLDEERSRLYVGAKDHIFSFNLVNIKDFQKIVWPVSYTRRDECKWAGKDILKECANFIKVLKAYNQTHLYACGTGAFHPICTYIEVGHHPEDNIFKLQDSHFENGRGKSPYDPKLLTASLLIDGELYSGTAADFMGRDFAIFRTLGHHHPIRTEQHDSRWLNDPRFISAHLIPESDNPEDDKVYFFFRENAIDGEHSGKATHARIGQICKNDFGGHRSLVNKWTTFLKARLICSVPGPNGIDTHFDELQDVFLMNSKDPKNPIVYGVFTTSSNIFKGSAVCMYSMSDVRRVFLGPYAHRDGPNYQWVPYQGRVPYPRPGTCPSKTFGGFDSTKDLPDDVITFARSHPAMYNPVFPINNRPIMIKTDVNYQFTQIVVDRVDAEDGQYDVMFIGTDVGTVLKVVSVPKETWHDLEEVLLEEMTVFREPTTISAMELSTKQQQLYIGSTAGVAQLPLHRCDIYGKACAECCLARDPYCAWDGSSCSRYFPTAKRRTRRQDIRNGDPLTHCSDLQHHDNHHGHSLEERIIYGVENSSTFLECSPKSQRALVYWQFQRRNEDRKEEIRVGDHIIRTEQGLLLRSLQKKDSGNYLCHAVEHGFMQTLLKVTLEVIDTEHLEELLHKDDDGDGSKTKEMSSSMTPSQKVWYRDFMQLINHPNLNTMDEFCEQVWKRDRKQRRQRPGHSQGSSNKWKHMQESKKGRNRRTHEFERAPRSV
Experimental: To evaluate the potential of the Compound 2 to inhibit Sema3a in a relevant small animal model, a rat axotomy study was carried out. […] Adult male Sprague-Dawley rats (12-15 weeks old, 300 g) were anesthetized (50 mg/kg xylazine and 35 mg/kg ketamine), and their left optic nerves were exposed by lateral canthotomy. Briefly, the conjuctivae were incised lateral to the cornea, and the retractor bulbus muscles were separated. Through a small opening in the meninges (50-100 µm), the nerve fibers were completely transected at a distance of 2-3 mm from the globe. The procedure was performed without damage to the nerve vasculature and optic nerve blood supply and with minimal damage to the meninges by the use of a specially designed glass dissector with a 200- µm tip and a smooth blunt edge (Solomon et al., 1996, Journal of Neuroscience Methods, 70, 21-5). […] Clinical examination of the eyes was performed using a slit lamp, and the eyes were monitored for any signs of hyperemia, edema, dis- charge, fibrin, and other inflammatory parameters. […] Two independent and blinded researchers counted the number of labeled RGC in flat-mounted retinas by fluorescent microscopy. For each retina, 20 representative microscopic fields were evaluated: 10 fields from the peripheral area and 10 fields from the central area (each field covering an area of 0.069 mm2). […]

As to `CCN(CC)CCN(CC(=O)N(CCN1CCCC1)CC(=O)N(CCC1CCCN1C)CC(N)=O)C(=O)OCc1ccccc1` (centres unmarked) [Compound 2, 2-[2-(1-methylpyrrolidin-2-yl)ethyl]-5-(2-pyrrolidin-1-yl)ethyl-8-benzyloxycarbonyl-11,11-diethyl-3,6-dioxo-2,5,8,11-tetraazaundecancarboxamide], the “RGC survival compared to healthy rats” value (adult male Sprague-Dawley rats, optic nerve axotomy, single intravitreal dose 0.025 µg/eye immediately after surgery, 14 days after optic nerve surgery, 2 days after Di-Asp retrograde staining of RGC) is 30%. Besides, for the setting “rat optic nerve axotomy, single intravitreal dose 0.025 µg/eye in 4 µl PBS, labeled RGC counted in flat-mounted retinas”, the “prevention of RGC loss (neuroprotection)” value is given as “neuroprotective”.
